{
  "source": "patent US10961240B2",
  "about": "“Formulations of a compound modulating kinases” (Plexxikon Inc., priority 2017, dated 2021)",
  "origin": "cited, not measured here",
  "key": {"mouse melanoma models": {"system": "mouse melanoma models", "settings": "with tumor-specific CD8 T cells"}, "microglia": {"system": "microglia", "settings": "sustained after intracerebral hemorrhage"}, "TGCT": {"system": "TGCT", "settings": "phase III"}, "[1]": {"system": "neurofibromatosis affected mice"}, "Hodgkin Lymphoma": {"system": "Hodgkin Lymphoma", "settings": "heavily pretreated patient cohort"}},
  "data": [
    {"compound": "FC(F)(F)c1ccc(CNc2ccc(Cc3c[nH]c4ncc(Cl)cc34)cn2)cn1", "note": "[Compound I]", "values": [
      {"measurement": "control of tumor outgrowth", "setting": "mouse melanoma models", "value": "strongly promoted the control of tumor outgrowth"},
      {"measurement": "tumor growth", "setting": "MPNST xenograft; MPNST xenograft", "value": "significant suppression of tumor growth"},
      {"measurement": "blockade of receptor tyrosine kinases", "setting": "MPNST xenograft; MPNST xenograft samples", "value": "sustained blockade of c-Kit, c-Fms and PDGFRβ"},
      {"measurement": "microglia depletion", "setting": "microglia", "value": "effectively depleted microglia"},
      {"measurement": "primary endpoint: tumor response measured by tumor size reduction", "setting": "TGCT", "value": "met its primary endpoint"},
      {"measurement": "bone loss", "setting": "[1]", "value": "prevented bone loss"},
      {"measurement": "efficacy", "setting": "Hodgkin Lymphoma", "value": "modest efficacy"},
      {"measurement": "safety profile", "setting": "Hodgkin Lymphoma", "value": "manageable safety profile"}
    ]}
  ]
}
